{"source": "patent US10952433B2", "about": "“Solutions for enhancing the effectiveness of insecticides and fungicides on living plants and related methods” (priority 2015, dated 2021)", "key": {"[1]": {"tested_on": "lepidopteran larvae: cabbage loopers (Trichoplusia ni) and beet armyworms (Spodoptera exigua)", "assay_type": "in vivo", "details": "leaf discs", "excerpt": "A second series of tests involved romaine lettuce discs approximately ⅝ inch in diameter. (L. sativa). They were dipped in the treatment solution one second per disc. This test involved the 5/5 configuration, i.e., 5 treated and 5 untreated. The infestation involved […] lepidopteran larvae at the 3rd to 4th instar development per container: four cabbage loopers (Trichoplusia ni), and four beet armyworms (Spodoptera exigua) were employed. The test containers were placed in a dark humidity cabinet at 15° C. and 80% relative humidity. Visual evaluations of the average percent damage were taken at 24, 48 and 72 hours after the initiation of infestation. Damage was evaluated in 5% increments based on total disc area.\nIn the tests reported in Table 8 pages 29-32), romaine lettuce leaf discs ⅝″ in diameter (L. sativa) were dipped in the treatment solution for about one second per disc. Infestation was provided by eight lepidopteran larvae at the 3rd to 4th instar development per container. Four cabbage loopers (Trichoplusia ni) and four beet armyworms (Spodoptera exigua) were employed in infestation. The containers were placed in a dark humidity cabinet at 15° C. and 80% relative humidity. Visual observations of the average percent damage was taken at 24, 48 and 72 hours after infestation. Damage evaluation was by 5% increments over the total disc area.\nIn the tests results provided in Table 8, the identity and concentrations of the insecticide was identical to the tests results reported in Table 7. The concentration of 200:1 was employed for the no amino oxide, no buffer and buffered amine oxide system. This series of tests, however, reported how the percent damage changed with time at the respective 24, 48 and 72 hour intervals."}, "[2]": {"tested_on": "lepidopteran larvae: cabbage loopers (Trichoplusia ni) and beet armyworms (Spodoptera exigua)", "assay_type": "in vivo", "details": "plants", "description": "In a first group of tests, the results of which are shown in Table 7 (pages 22-24), romaine lettuce plants two to three inches in height were exposed to 10 milliliters of solution applied to each plant using a low volume trigger spray. With respect to containers 0-7, ten plants were employed per container, nine were treated and one was an internal control. In containers M-H, ten plants per container were used, five were treated and 5 were internal controls. Each container was infested with 30 lepidopteran larvae between the 5th and 6th instar development. Fifteen cabbage loopers (Trichoplusia ni) and 15 beet armyworms (Spodoptera exigua) were used to infest the romaine lettuce plants. Visual evaluations for the average percentage total surface area damage were taken 24 hours after infestation. Percentage damage was evaluated by 5% increments for total damage across all plant leaves.\nAs indicated in the first column of Table 7, in some tests, no insecticide was employed and there were two controls; a no water control and a no dye control. A wide variety of insecticides selected from the following group were tested: Chlorantranilopril, Acephate, Methoxyfenozide, Spinosad, Permethrin, and Indoxacarb. The product concentration is shown in PPM in column 2. Column 3 is divided into two subunits, the first being CO3 and the second, PO4. In all instances in columns 3, 4 and 5 and their sub-columns, the concentrations used were 200:1. The fourth column employed amine oxide, but no buffer. […] Two sub-columns each are represented for CO3 and PO4. The final column is a reading of the Percent Lepidopteran Damage to the romaine lettuce plants after 24 hours.\nIn addition to testing the buffered amine system of the present invention with the two amine oxides identified as CO3 and PO4 and their use with 12 carbon length and a mixture of 12 and 18 designated 1218 for comparative data purposes various differences were created in the testing. Some of the tests were performed with (a) no insecticide along with (b) no amine oxide for CO3 and PO4 and (c) with no buffer, but with amine oxide. Also, tests were run using no insecticide and no water control with no foliar application being made. Tests with no insecticide and no dye control employed foliar application of water only. The tests were conducted with all of the testing on the buffer alone, the amine oxide alone and the buffered amine oxide system of the present invention in the concentration of 200:1."}, "[3]": {"details": "insecticide + CO3 buffer 200:1, no amine oxide, PPM: Chlorantranilopril 60, Acephate 70, Methoxyfenozide 100, Spinosad 30, Permethrin 10, Indoxacarb 50"}, "[4]": {"details": "insecticide + PO4 buffer 200:1, no amine oxide, PPM: Chlorantranilopril 60, Acephate 70, Methoxyfenozide 100, Spinosad 30, Permethrin 10, Indoxacarb 50"}, "[5]": {"details": "insecticide + amine oxide 12, no buffer, 200:1, PPM: Chlorantranilopril 60, Acephate 70, Methoxyfenozide 100, Spinosad 30, Permethrin 10, Indoxacarb 50"}, "[6]": {"details": "insecticide + amine oxide 1218, no buffer, 200:1, PPM: Chlorantranilopril 60, Acephate 70, Methoxyfenozide 100, Spinosad 30, Permethrin 10, Indoxacarb 50"}, "[7]": {"details": "insecticide + buffered amine oxide system CO3, 12, 200:1, PPM: Chlorantranilopril 60, Acephate 70, Methoxyfenozide 100, Spinosad 30, Permethrin 10, Indoxacarb 50"}, "[8]": {"details": "insecticide + buffered amine oxide system CO3, 1218, 200:1, PPM: Chlorantranilopril 60, Acephate 70, Methoxyfenozide 100, Spinosad 30, Permethrin 10, Indoxacarb 50"}, "[9]": {"details": "insecticide + buffered amine oxide system PO4, 12, 200:1, PPM: Chlorantranilopril 60, Acephate 70, Methoxyfenozide 100, Spinosad 30, Permethrin 10, Indoxacarb 50"}, "[10]": {"details": "insecticide + buffered amine oxide system PO4, 1218, 200:1, PPM: Chlorantranilopril 60, Acephate 70, Methoxyfenozide 100, Spinosad 30, Permethrin 10, Indoxacarb 50"}, "[11]": {"details": "insecticide alone, highest, PPM: Chlorantranilopril 120, Acephate 140, Methoxyfenozide 200, Spinosad 60, Permethrin 20, Indoxacarb 100"}, "[12]": {"details": "insecticide alone, increased, PPM: Chlorantranilopril 90, Acephate 105, Methoxyfenozide 150, Spinosad 45, Permethrin 15, Indoxacarb 75"}, "[13]": {"details": "insecticide alone, PPM: Chlorantranilopril 60, Acephate 70, Methoxyfenozide 100, Spinosad 30, Permethrin 10, Indoxacarb 50"}}, "note": "Where two headings read alike, the source gives them in different places."}
{"smiles": "CNC(=O)c1cc(Cl)cc(C)c1NC(=O)c1cc(Br)nn1-c1ncccc1Cl", "note": "[Chlorantranilopril]", "values": [{"measurement": "Percent Lepidopteran Damage to Romaine Lettuce 24 hr", "setting": "[1]; [3]", "result": 13.0, "unit": "%"}, {"measurement": "Percent Lepidopteran Damage to Romaine Lettuce 24 hr", "setting": "[1]; [4]", "result": 14.0, "unit": "%"}, {"measurement": "Percent Lepidopteran Damage to Romaine Lettuce 24 hr", "setting": "[1]; [5]", "result": 4.5, "unit": "%"}, {"measurement": "Percent Lepidopteran Damage to Romaine Lettuce 24 hr", "setting": "[1]; [6]", "result": 10.5, "unit": "%"}, {"measurement": "Percent Lepidopteran Damage to Romaine Lettuce 24 hr", "setting": "[1]; [7]", "result": 3.0, "unit": "%"}, {"measurement": "Percent Lepidopteran Damage to Romaine Lettuce 24 hr", "setting": "[1]; [8]", "result": 1.0, "unit": "%"}, {"measurement": "Percent Lepidopteran Damage to Romaine Lettuce 24 hr", "setting": "[1]; [9]", "result": 4.5, "unit": "%"}, {"measurement": "Percent Lepidopteran Damage to Romaine Lettuce 24 hr", "setting": "[1]; [10]", "result": 6.5, "unit": "%"}, {"measurement": "Percent Lepidopteran Damage to Romaine Lettuce 24 hr", "setting": "[1]; [11]", "result": 9.5, "unit": "%"}, {"measurement": "Percent Lepidopteran Damage to Romaine Lettuce 24 hr", "setting": "[1]; [12]", "result": 7.5, "unit": "%"}, {"measurement": "Percent Lepidopteran Damage to Romaine Lettuce 24 hr", "setting": "[1]; [13]", "result": 4.5, "unit": "%"}, {"measurement": "Percent Lepidopteran Damage to Romaine Lettuce 48 hr", "setting": "[1]; [3]", "result": 17.5, "unit": "%"}, {"measurement": "Percent Lepidopteran Damage to Romaine Lettuce 48 hr", "setting": "[1]; [4]", "result": 22.5, "unit": "%"}, {"measurement": "Percent Lepidopteran Damage to Romaine Lettuce 48 hr", "setting": "[1]; [5]", "result": 8.0, "unit": "%"}, {"measurement": "Percent Lepidopteran Damage to Romaine Lettuce 48 hr", "setting": "[1]; [6]", "result": 17.5, "unit": "%"}, {"measurement": "Percent Lepidopteran Damage to Romaine Lettuce 48 hr", "setting": "[1]; [7]", "result": 5.0, "unit": "%"}, {"measurement": "Percent Lepidopteran Damage to Romaine Lettuce 48 hr", "setting": "[1]; [8]", "result": 2.0, "unit": "%"}, {"measurement": "Percent Lepidopteran Damage to Romaine Lettuce 48 hr", "setting": "[1]; [9]", "result": 12.5, "unit": "%"}, {"measurement": "Percent Lepidopteran Damage to Romaine Lettuce 48 hr", "setting": "[1]; [10]", "result": 12.5, "unit": "%"}, {"measurement": "Percent Lepidopteran Damage to Romaine Lettuce 48 hr", "setting": "[1]; [11]", "result": 17.5, "unit": "%"}, {"measurement": "Percent Lepidopteran Damage to Romaine Lettuce 48 hr", "setting": "[1]; [12]", "result": 14.0, "unit": "%"}, {"measurement": "Percent Lepidopteran Damage to Romaine Lettuce 48 hr", "setting": "[1]; [13]", "result": 9.0, "unit": "%"}, {"measurement": "Percent Lepidopteran Damage to Romaine Lettuce 72 hr", "setting": "[1]; [3]", "result": 19.5, "unit": "%"}, {"measurement": "Percent Lepidopteran Damage to Romaine Lettuce 72 hr", "setting": "[1]; [4]", "result": 24.5, "unit": "%"}, {"measurement": "Percent Lepidopteran Damage to Romaine Lettuce 72 hr", "setting": "[1]; [5]", "result": 8.5, "unit": "%"}, {"measurement": "Percent Lepidopteran Damage to Romaine Lettuce 72 hr", "setting": "[1]; [6]", "result": 18.5, "unit": "%"}, {"measurement": "Percent Lepidopteran Damage to Romaine Lettuce 72 hr", "setting": "[1]; [7]", "result": 5.0, "unit": "%"}, {"measurement": "Percent Lepidopteran Damage to Romaine Lettuce 72 hr", "setting": "[1]; [8]", "result": 2.0, "unit": "%"}, {"measurement": "Percent Lepidopteran Damage to Romaine Lettuce 72 hr", "setting": "[1]; [9]", "result": 13.0, "unit": "%"}, {"measurement": "Percent Lepidopteran Damage to Romaine Lettuce 72 hr", "setting": "[1]; [10]", "result": 12.5, "unit": "%"}, {"measurement": "Percent Lepidopteran Damage to Romaine Lettuce 72 hr", "setting": "[1]; [11]", "result": 17.5, "unit": "%"}, {"measurement": "Percent Lepidopteran Damage to Romaine Lettuce 72 hr", "setting": "[1]; [12]", "result": 15.0, "unit": "%"}, {"measurement": "Percent Lepidopteran Damage to Romaine Lettuce 72 hr", "setting": "[1]; [13]", "result": 9.0, "unit": "%"}, {"measurement": "Percent Lepidopteran Damage to Romaine Lettuce 24 hr", "setting": "[2]; [3]", "result": 13.5, "unit": "%"}, {"measurement": "Percent Lepidopteran Damage to Romaine Lettuce 24 hr", "setting": "[2]; [4]", "result": 9.0, "unit": "%"}, {"measurement": "Percent Lepidopteran Damage to Romaine Lettuce 24 hr", "setting": "[2]; [5]", "result": 9.0, "unit": "%"}, {"measurement": "Percent Lepidopteran Damage to Romaine Lettuce 24 hr", "setting": "[2]; [6]", "result": 5.5, "unit": "%"}, {"measurement": "Percent Lepidopteran Damage to Romaine Lettuce 24 hr", "setting": "[2]; [7]", "result": 2.5, "unit": "%"}, {"measurement": "Percent Lepidopteran Damage to Romaine Lettuce 24 hr", "setting": "[2]; [8]", "result": 2.5, "unit": "%"}, {"measurement": "Percent Lepidopteran Damage to Romaine Lettuce 24 hr", "setting": "[2]; [9]", "result": 4.0, "unit": "%"}, {"measurement": "Percent Lepidopteran Damage to Romaine Lettuce 24 hr", "setting": "[2]; [10]", "result": 0.0, "unit": "%"}, {"measurement": "Percent Lepidopteran Damage to Romaine Lettuce 24 hr", "setting": "[2]; [11]", "result": 8.5, "unit": "%"}, {"measurement": "Percent Lepidopteran Damage to Romaine Lettuce 24 hr", "setting": "[2]; [12]", "result": 8.2, "unit": "%"}, {"measurement": "Percent Lepidopteran Damage to Romaine Lettuce 24 hr", "setting": "[2]; [13]", "result": 10.5, "unit": "%"}]}
